Values joined by “and” are separate entries in the source; they are usually repeats but may differ in a detail not shown here. Equal values may be shown once.
System: anterior chamber aqueous humor pressure load rat model
Experiment: Retinal thickness (IPL, INL, ONL) in retinal damage model induced by anterior chamber aqueous humor pressure load
Assay type: in vivo, Rat; Slc: SD
Details: for Thickness of INL (μm) / Thickness of IPL (μm) / Thickness of ONL (μm): 14 days after model creation, mean ± S.E., 10 animals
Experimental: • Name: Compound 9 • Source: Synthesized in the above Examples • Used amount: 0.4 mL (50 mg/mL solution) • Storage conditions: Freezing, light shielding
Method for preparing test substance (1 mg/mL): A high concentration solution prepared at 50 mg/mL was diluted 50 times with a medium to prepare a 1 mg/mL administration solution.
• Name: MK-801 • Distributor: SIGMA-ALDRICH • Use amount: 0.0501 g • Storage condition: refrigerated (2° C. to 8° C.)
Method for preparing positive control substance (10 mg/mL): 0.0501 g was weighed out and made up to a total volume of 5 mL with a control substance (physiological saline).
• Species and strains: Rat; Slc: SD • Number of animals on arrival and sex: 50 males • Age in weeks at arrival: 6 weeks old • Body weight range at arrival: 147.2 to 170.0 g • Source: Japan SLC, Inc.
Grouping was performed two days before the first creation of the retinal damage model induced by an anterior chamber aqueous humor pressure load. Using the daily body weight as an index, stratified random allocation was performed using SAS (Ver. 9.3, SAS Institute Japan Ltd.) and EXSUS (Ver. 8.0, CAC Croit Corporation) so that an average value of the body weights of each group was approximately uniform.
• Administration route: Eyedrop administration, intravenous administration • Administration method (eyedrop): Eyedrop administration was performed on a treated eye (right eye) of a rat using a micropipette 4 times a day (at intervals of 1.5 hours or more). • Administration method (intravenous): The amount of administration solution, calculated from the body weight on the day of administration, was administered from the tail vein using a syringe and an injection needle about 30 minutes before ischemic load. • Time of administration: Administration was performed according to the following schedule.
1. 10 mg/kg xylazine hydrochloride was intramuscularly administered on the model creation day (day 0). A rat was placed in an anesthesia box and subjected to general anesthesia with isoflurane (5%, oxygen:nitrous oxide=1:3). When anesthesia was effective, the rat was taken out of the anesthesia box, an inhalation anesthetic mask was worn, and anesthesia was maintained with isoflurane (1% to 5%, oxygen nitrous oxide=1:3).
2. The body temperature was maintained at 37° C. with a warming mat, and a mydrin P ophthalmic solution was instilled in the right eye (treated eye) of the rat to dilate the pupil, then the cravit ophthalmic solution 1.5% (Santen Pharmaceutical Co., Ltd.) was instilled.
3. A bottle of an IV bag containing physiological saline was previously suspended so that a water surface was 155 cm (100 mmHg or more) higher than the eye of the rat. The IV bag was connected to a pediatric infusion set (Terumo Corporation), a 27 G injection needle thereof was inserted into and fixed to the anterior chamber while slightly dripping the liquid from a needle tip. The model was created in the light phase (6:00 to 18:00) in consideration of the diurnal variation of the intraocular pressure.
4. After the needle was inserted into the anterior chamber, pressure (100 mmHg or more) was loaded and maintained in the anterior chamber by associating the reflux system.
5. After an ischemic load for 45 minutes, the injection needle and the like were removed, the inhalation anesthetic mask was removed, and the rat was sufficiently woken up under a warming mat, and then returned to the cage.
6. For 2 days after surgery, 10 mg/kg xylazine hydrochloride was intramuscularly administered as an analgesic for the purpose of alleviating the pain after the treatment.
1. Fourteen days after model creation, general anesthesia was performed with isoflurane (5%, oxygen:nitrous oxide=1:3), euthanasia was then performed by exsanguination, a suture was placed as a marker at the 12 o'clock position of the ocular conjunctiva, and eyeball enucleation was performed.
2. […]

[1] = 300 μm from optic disk, 1 mg/mL eye drop 4 times/day for 13 days from the day after model creation (test group 3)
[2] = 300 μm from optic disk, 1 mg/mL eye drop 4 times/day for 13 days from the day after model creation (test group 3), listed as compound 9
[3] = 300 μm from optic disk, (pre) 1 mg/mL eye drop 4 times/day on the 2 days before model creation (test group 2)
[4] = 300 μm from optic disk, (pre) 1 mg/mL eye drop 4 times/day on the 2 days before model creation (test group 2), listed as compound 9
[5] = 600 μm from optic disk, 1 mg/mL eye drop 4 times/day for 13 days from the day after model creation (test group 3)

## CC[C@@]1(C)Oc2cc(ccc2O)C[C@H](NC)C(=O)N[C@@H](C(C)C)C(=O)N[C@@H]1C(=O)N[C@@H](CC(=O)O)C(=O)O [Compound 9]
1 mg/mL eye drop (not pre), right eye, 600 μm from optic disk, mean per animal, listed as compond 9
  Thickness of IPL (μm), Distance from Optic Disk 600 μm, Mean: 38.524 μm and 43.173 μm and 37.628 μm and 41.423 μm and 44.503 μm and 42.210 μm and 45.497 μm and 49.420 μm and 43.394 μm and 43.719 μm
1 mg/mL eye drop (not pre), right eye, 900 μm from optic disk, individual measurements per animal
  Thickness of INL (μm), Distance from Optic Disk 900 μm: 23.463 μm and 23.821 μm and 26.168 μm and 31.627 μm and 31.452 μm and 31.822 μm and 18.956 μm and 25.938 μm and 21.867 μm and 22.952 μm and 23.718 μm and 22.465 μm and 26.601 μm and 27.289 μm and 29.587 μm and 30.400 μm and 26.367 μm and 26.057 μm and 35.226 μm and 33.688 μm and 33.919 μm and 36.066 μm and 40.039 μm and 42.383 μm and 29.394 μm and 29.751 μm and 27.773 μm and 29.233 μm and 27.808 μm and 25.454 μm
1 mg/mL eye drop (not pre), right eye, 900 μm from optic disk, individual measurements per animal, listed as compond 9
  Thickness of IPL (μm), Distance from Optic Disk 900 μm: 39.528 μm and 37.965 μm and 40.039 μm and 50.240 μm and 47.772 μm and 44.149 μm and 38.417 μm and 36.462 μm and 38.383 μm and 39.277 μm and 38.777 μm and 38.865 μm and 45.233 μm and 47.955 μm and 43.645 μm and 43.616 μm and 43.735 μm and 42.098 μm and 53.201 μm and 48.131 μm and 47.334 μm and 50.136 μm and 51.594 μm and 51.265 μm and 43.640 μm and 42.918 μm and 42.582 μm and 46.425 μm and 48.902 μm and 47.239 μm
1 mg/mL eye drop (not pre), right eye, 900 μm from optic disk, mean per animal
  Thickness of INL (μm), Distance from Optic Disk 900 μm, Mean: 24.484 μm and 31.634 μm and 22.254 μm and 23.045 μm and 27.826 μm and 27.608 μm and 34.278 μm and 39.496 μm and 28.973 μm and 27.498 μm
1 mg/mL eye drop (not pre), right eye, 900 μm from optic disk, mean per animal, listed as compond 9
  Thickness of IPL (μm), Distance from Optic Disk 900 μm, Mean: 39.177 μm and 47.387 μm and 37.754 μm and 38.973 μm and 45.611 μm and 43.150 μm and 49.555 μm and 50.998 μm and 43.047 μm and 47.522 μm
[1]
  Thickness of INL (μm): 29.27±1.94 μm
  Thickness of IPL (μm): 37.09±1.42 μm
  Thickness of ONL (μm): 42.79±2.60 μm
[2]
  Thickness of INL (μm): 29.27 ± 1.94 μm
  Thickness of ONL (μm): 42.79 ± 2.60 μm
[3]
  Thickness of INL (μm): 28.93±1.27 μm
  Thickness of IPL (μm): 31.31±0.93 μm
  Thickness of ONL (μm): 40.06±1.61 μm
[4]
  Thickness of INL (μm): 28.93 ± 1.27 μm
  Thickness of ONL (μm): 40.06 ± 1.61 μm
[5]
  Thickness of INL (μm): 31.48±1.26 μm
  Thickness of IPL (μm): 42.95±1.07 μm
  Thickness of ONL (μm): 42.33±1.81 μm
600 μm from optic disk, 1 mg/mL eye drop 4 times/day for 13 days from the day after model creation (test group 3), listed as compound 9
  Thickness of INL (μm): 31.48 ± 1.26 μm

From US20260091082A1, “CYCLIC PEPTIDE DERIVATIVE COMPOSITION FOR TREATING OR PREVENTING EYE DISEASE” (DKS Co. Ltd., priority 2022, published 2026)
